Patent US12649750B2, “Macrocyclic compounds, compositions, and methods of using thereof” (Sionna Therapeutics Inc., priority 2022, dated 2026)

Tests used:
CFTR = biological target: T1, CFTR (Homo sapiens, UniProt P13569, DEL508-508); assay: TECC24 AUC fold over DMSO @10 μM, CFTR-mediated transepithelial chloride transport in CF-HBE cells; assay type: cell-based; conditions: test agent AUC divided by DMSO vehicle AUC, primary CF-HBE cells, ΔF508 homozygous donor, 48 hours incubation
T1 construct: Primary human bronchial epithelial cells from a ΔF508 homozygous CF donor; host or cells: primary human bronchial epithelial cells (CF-HBE), ΔF508 homozygous donor
T1 sequence (P13569 with tags, fused parts or gaps DEL508-508): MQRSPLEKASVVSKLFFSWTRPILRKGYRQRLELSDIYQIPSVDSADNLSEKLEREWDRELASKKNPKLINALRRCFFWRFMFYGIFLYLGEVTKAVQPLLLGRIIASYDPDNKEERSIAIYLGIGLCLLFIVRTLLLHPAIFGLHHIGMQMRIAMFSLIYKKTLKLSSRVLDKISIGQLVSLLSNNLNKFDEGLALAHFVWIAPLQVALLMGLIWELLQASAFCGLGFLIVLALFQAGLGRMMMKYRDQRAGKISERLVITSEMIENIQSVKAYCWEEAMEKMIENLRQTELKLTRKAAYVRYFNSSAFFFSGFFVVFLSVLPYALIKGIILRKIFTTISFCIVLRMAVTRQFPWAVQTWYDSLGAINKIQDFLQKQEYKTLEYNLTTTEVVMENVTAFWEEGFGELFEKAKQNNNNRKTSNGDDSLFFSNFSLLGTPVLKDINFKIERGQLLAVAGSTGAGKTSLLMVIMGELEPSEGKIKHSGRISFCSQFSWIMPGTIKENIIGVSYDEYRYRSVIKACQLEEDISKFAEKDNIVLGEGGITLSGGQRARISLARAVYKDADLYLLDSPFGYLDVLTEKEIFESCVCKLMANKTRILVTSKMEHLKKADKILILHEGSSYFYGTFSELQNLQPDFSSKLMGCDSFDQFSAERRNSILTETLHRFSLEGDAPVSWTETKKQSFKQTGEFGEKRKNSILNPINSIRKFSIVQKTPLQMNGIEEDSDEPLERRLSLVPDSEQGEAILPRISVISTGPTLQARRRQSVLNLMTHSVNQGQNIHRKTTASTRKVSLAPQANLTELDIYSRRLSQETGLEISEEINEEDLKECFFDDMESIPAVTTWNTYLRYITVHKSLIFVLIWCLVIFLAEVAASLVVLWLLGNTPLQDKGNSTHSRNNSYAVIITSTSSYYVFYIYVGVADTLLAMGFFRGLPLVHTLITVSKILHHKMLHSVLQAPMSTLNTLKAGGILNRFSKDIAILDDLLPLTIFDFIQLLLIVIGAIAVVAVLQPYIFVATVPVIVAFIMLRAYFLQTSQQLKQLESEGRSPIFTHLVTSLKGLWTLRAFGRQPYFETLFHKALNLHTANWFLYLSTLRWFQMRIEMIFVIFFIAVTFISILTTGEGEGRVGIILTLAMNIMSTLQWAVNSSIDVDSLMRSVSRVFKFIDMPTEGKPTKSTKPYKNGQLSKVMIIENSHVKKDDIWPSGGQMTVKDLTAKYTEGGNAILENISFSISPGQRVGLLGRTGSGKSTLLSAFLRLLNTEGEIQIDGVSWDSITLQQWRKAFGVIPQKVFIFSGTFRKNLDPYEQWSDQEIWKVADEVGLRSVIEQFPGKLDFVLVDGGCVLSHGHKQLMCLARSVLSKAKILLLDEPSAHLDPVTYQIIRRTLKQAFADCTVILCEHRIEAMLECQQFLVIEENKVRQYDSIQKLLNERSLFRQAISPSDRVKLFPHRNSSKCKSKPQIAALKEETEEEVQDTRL
In short: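 Primary ΔF508-homozygous CF bronchial epithelial cells on inserts were incubated 48 h at 36.5 °C with compound in IL-13-containing medium. VT and TEER were then recorded in current-clamp mode (pH 7.4 HEPES bath) with benzamil 10 μM, forskolin 10 μM, then CFTR inhibitor-172 20 μM. The IEQ AUC between forskolin and inhibitor was divided by vehicle AUC.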

NBD1 = biological target: T2, NBD1 (Homo sapiens, UniProt P13569); assay: Aggregation analysis using differential static light scattering (DSLS), thermal stability of NBD1 (ΔTagg); assay type: binding; conditions: ΔTagg versus DMSO control, NBD1 0.2 mg/ml
T2 construct: Purified recombinant NBD1 was produced using previously described methods; made in house
T2 sequence (P13569 423-646 limits assumed): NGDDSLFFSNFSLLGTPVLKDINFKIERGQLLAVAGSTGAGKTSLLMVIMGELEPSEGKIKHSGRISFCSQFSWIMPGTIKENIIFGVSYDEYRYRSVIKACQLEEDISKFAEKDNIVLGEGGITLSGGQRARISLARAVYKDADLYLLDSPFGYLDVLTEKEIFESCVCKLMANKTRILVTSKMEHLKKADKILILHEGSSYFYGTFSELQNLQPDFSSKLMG
In short: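 Purified recombinant NBD1 at 0.2 mg/ml in Tris buffer pH7.6 with 2 mM ATP, 5 mM MgCl2, 2 mM DTT and 1% glycerol was mixed with DMSO-dissolved compounds under mineral oil. Plates were heated at 1° C. per minute to 70° C., light scattering imaged every 0.5° C.; Tagg from curve inflection, minus DMSO-control mean.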

| Structure (SMILES) | TECC (AUC, 10 μM) (CFTR) | DSLS 3D (100 μM ΔT) (NBD1) |
| --- | --- | --- |
| CC(Cc1cccc(C2(CF)CCCC(C)(C)CS(=O)(=O)CCc3c(c(F)cc4[nH]ccc34)Oc3ccc(F)c(c3)-c3nc2nn3C)c1)C(=O)O (single isomer, unassigned) [Compound 108A, 3-[3-[22,28-difluoro-6-(fluoromethyl)-3,10,10-trimethyl-12,12-dioxo-24-oxa-12λ6-thia-3,4,19,30-tetrazapentacyclo[23.3.1.12,5.015,23.016,20]triaconta-1(29),2(30),4,15,17,20,22,25,27-nonaen-6-yl]phenyl]-2-methyl-propanoic acid] | A (a TECC value less than 12 is marked “A”) | A (an ΔTagg value less than or equal to 5 °C is marked “A”) |
| CC(Cc1cccc(C2(CF)CCCC(C)(C)CS(=O)(=O)CCc3c(c(F)cc4[nH]ccc34)Oc3ccc(F)c(c3)-c3nc2nn3C)c1)C(=O)O (single isomer, unassigned) [Compound 108B, 3-[3-[22,28-difluoro-6-(fluoromethyl)-3,10,10-trimethyl-12,12-dioxo-24-oxa-12λ6-thia-3,4,19,30-tetrazapentacyclo[23.3.1.12,5.015,23.016,20]triaconta-1(29),2(30),4,15,17,20,22,25,27-nonaen-6-yl]phenyl]-2-methyl-propanoic acid] | C (a value between 20 and 80 is marked “C”) | A (an ΔTagg value less than or equal to 5 °C is marked “A”) |
| Cn1nc2nc1-c1cc(ccc1F)Oc1c(F)cc3[nH]ccc3c1Cn1cc(cn1)C(C)(C)CS(=O)(=O)CCC2(C)c1cccc(CCC(=O)O)c1 (single isomer, unassigned) [Compound 109A, 3-[3-(24,30-difluoro-3,6,11,11-tetramethyl-9,9-dioxo-26-oxa-9lambda6-thia-3,4,14,15,21,33-hexazahexacyclo[25.3.1.12,5.112,15.017,25.018,22]tritriaconta-1(31),2(33),4,12(32),13,17,19,22,24,27,29-undecaen-6-yl)phenyl]propanoic Acid] | C (a value between 20 and 80 is marked “C”) | C (a value greater than 10 °C and less than or equal to 25 °C is marked “C”) |
| Cn1nc2nc1-c1cc(ccc1F)Oc1c(F)cc3[nH]ccc3c1Cn1cc(cn1)C(C)(C)CS(=O)(=O)CCC2(C)c1cccc(CCC(=O)O)c1 (single isomer, unassigned) [Compound 109B, 3-[3-(24,30-difluoro-3,6,11,11-tetramethyl-9,9-dioxo-26-oxa-9lambda6-thia-3,4,14,15,21,33-hexazahexacyclo[25.3.1.12,5.112,15.017,25.018,22]tritriaconta-1(31),2(33),4,12(32),13,17,19,22,24,27,29-undecaen-6-yl)phenyl]propanoic Acid] | A (a TECC value less than 12 is marked “A”) | A (an ΔTagg value less than or equal to 5 °C is marked “A”) |
| CC(Cc1cccc(C2(C)COCC(C)(C)CS(=O)(=O)CCc3c(c(F)cc4[nH]ccc34)Oc3ccc(F)c(c3)-c3nc2nn3C)c1)C(=O)O (single isomer, unassigned) [Compound 113A] | A (a TECC value less than 12 is marked “A”) | C (a value greater than 10 °C and less than or equal to 25 °C is marked “C”) |
| CC(Cc1cccc(C2(C)COCC(C)(C)CS(=O)(=O)CCc3c(c(F)cc4[nH]ccc34)Oc3ccc(F)c(c3)-c3nc2nn3C)c1)C(=O)O (single isomer, unassigned) [Compound 113B] | A (a TECC value less than 12 is marked “A”) | A (an ΔTagg value less than or equal to 5 °C is marked “A”) |
| [2H]C([2H])([2H])C1(c2cccc(CC(C)C(=O)O)c2)COCC(C)(C)CS(=O)(=O)CCc2c(c(F)c(F)c3[nH]ccc23)Oc2ccc(F)c(c2)-c2nc1nn2C (single isomer, unassigned) [Compound 118A, 2-methyl-3-[3-[21,22,28-trifluoro-3,10,10-trimethyl-12,12-dioxo-6-(trideuteriomethyl)-8,24-dioxa-12λ6-thia-3,4,19,30-tetrazapentacyclo[23.3.1.12,5.015,23.016,20]triaconta-1(29),2(30),4,15,17,20,22,25,27-nonaen-6-yl]phenyl]propanoic acid] | A (a TECC value less than 12 is marked “A”) | C (a value greater than 10 °C and less than or equal to 25 °C is marked “C”) |
| [2H]C([2H])([2H])C1(c2cccc(CC(C)C(=O)O)c2)COCC(C)(C)CS(=O)(=O)CCc2c(c(F)c(F)c3[nH]ccc23)Oc2ccc(F)c(c2)-c2nc1nn2C (single isomer, unassigned) [Compound 118B, 2-methyl-3-[3-[21,22,28-trifluoro-3,10,10-trimethyl-12,12-dioxo-6-(trideuteriomethyl)-8,24-dioxa-12λ6-thia-3,4,19,30-tetrazapentacyclo[23.3.1.12,5.015,23.016,20]triaconta-1(29),2(30),4,15,17,20,22,25,27-nonaen-6-yl]phenyl]propanoic acid] | A (a TECC value less than 12 is marked “A”) | A (an ΔTagg value less than or equal to 5 °C is marked “A”) |
| [2H]C([2H])([2H])C1(c2cccc(CC(C)C(=O)O)c2)CCC(C)(C)CCS(=O)(=O)CCc2c(c(F)cc3[nH]ccc23)Oc2ccc(F)c(c2)-c2nc1nn2C (single isomer, unassigned) [Compound 119A, 3-[3-[22,28-difluoro-3,9,9-trimethyl-12,12-dioxo-6-(trideuteriomethyl)-24-oxa-12lambda6-thia-3,4,19,30-tetrazapentacyclo[23.3.1.12,5.015,23.016,20]triaconta-1(29),2(30),4,15,17,20,22,25,27-nonaen-6-yl]phenyl]-2-methyl-propanoic acid] | A (a TECC value less than 12 is marked “A”) | A (an ΔTagg value less than or equal to 5 °C is marked “A”) |
| [2H]C([2H])([2H])C1(c2cccc(CC(C)C(=O)O)c2)CCC(C)(C)CCS(=O)(=O)CCc2c(c(F)cc3[nH]ccc23)Oc2ccc(F)c(c2)-c2nc1nn2C (single isomer, unassigned) [Compound 119B, 3-[3-[22,28-difluoro-3,9,9-trimethyl-12,12-dioxo-6-(trideuteriomethyl)-24-oxa-12lambda6-thia-3,4,19,30-tetrazapentacyclo[23.3.1.12,5.015,23.016,20]triaconta-1(29),2(30),4,15,17,20,22,25,27-nonaen-6-yl]phenyl]-2-methyl-propanoic acid] | A (a TECC value less than 12 is marked “A”) | B (a value above 5 °C and less than or equal to 10 °C is marked “B”) |
| [2H]C([2H])([2H])C1(c2cccc(CC3(C(=O)O)CC3)c2)CCCC(C)(C)CS(=O)(=O)CCc2c(c(F)cc3[nH]ccc23)Oc2ccc(F)c(c2)-c2nc1nn2C (single isomer, unassigned) [Compound 120A, 1-[[3-[22,28-difluoro-3,10,10-trimethyl-12,12-dioxo-6-(trideuteriomethyl)-24-oxa-12λ6-thia-3,4,19,30-tetrazapentacyclo[23.3.1.12,5.015,23.016,20]triaconta-1(29),2(30),4,15,17,20,22,25,27-nonaen-6-yl]phenyl]methyl]cyclopropanecarboxylic Acid] | A (a TECC value less than 12 is marked “A”) | C (a value greater than 10 °C and less than or equal to 25 °C is marked “C”) |
| [2H]C([2H])([2H])C1(c2cccc(CC3(C(=O)O)CC3)c2)CCCC(C)(C)CS(=O)(=O)CCc2c(c(F)cc3[nH]ccc23)Oc2ccc(F)c(c2)-c2nc1nn2C (single isomer, unassigned) [Compound 120B, 1-[[3-[22,28-difluoro-3,10,10-trimethyl-12,12-dioxo-6-(trideuteriomethyl)-24-oxa-12λ6-thia-3,4,19,30-tetrazapentacyclo[23.3.1.12,5.015,23.016,20]triaconta-1(29),2(30),4,15,17,20,22,25,27-nonaen-6-yl]phenyl]methyl]cyclopropanecarboxylic Acid] | A (a TECC value less than 12 is marked “A”) | A (an ΔTagg value less than or equal to 5 °C is marked “A”) |
| Cn1nc2nc1-c1cc(ccc1F)Oc1c(F)c(F)c3[nH]ccc3c1CCS(=O)(=O)CC(C)(C)CCCC2(C#N)c1cccc(CC2(C(=O)O)CC2)c1 (single isomer, unassigned) [Compound 121A, 1-[[3-(6-cyano-21,22,28-trifluoro-3,10,10-trimethyl-12,12-dioxo-24-oxa-12λ6-thia-3,4,19,30-tetrazapentacyclo[23.3.1.12,5.015,23.016,20]triaconta-1(29),2(30),4,15,17,20,22,25,27-nonaen-6-yl)phenyl]methyl]cyclopropanecarboxylic Acid] | B (a value between 12-20 is marked “B”) | C (a value greater than 10 °C and less than or equal to 25 °C is marked “C”) |
